Test results from ChEMBL document CHEMBL3885881, “DrugMatrix”.

Species: Rattus norvegicus
Assay: DrugMatrix - Regimen: Daily Repeat
Assay type: toxicity, organism-based, Sprague-Dawley
Parameters: regimen Daily Repeat, gender Male, age 6-8 weeks
Conditions: in vivo, sc, route subcutaneous, […]; for BASOPHIL / EOSINOPHIL / ERYTHROCYTE COUNT / HEMATOCRIT / HEMOGLOBIN / LEUKOCYTE COUNT / LYMPHOCYTE / MEAN CORPUSCULAR HEMOGLOBIN / MEAN CORPUSCULAR HEMOGLOBIN CONCENTRATION / MEAN CORPUSCULAR VOLUME / MONOCYTE / NEUTROPHIL / PLATELET COUNT: tissue Blood; for ALANINE AMINOTRANSFERASE / ALBUMIN / ALKALINE PHOSPHATASE / ASPARTATE AMINOTRANSFERASE / BLOOD UREA NITROGEN / CARBON DIOXIDE / CHLORIDE / CHOLESTEROL / CREATININE / GLUCOSE / LACTATE DEHYDROGENASE / LIPASE / PHOSPHORUS / POTASSIUM / TOTAL BILIRUBIN / TOTAL PROTEIN / URIC ACID: tissue Plasma
[1] = 4 mg/kg, 72 h, dose level Low, time 3 day
[2] = 4 mg/kg, 120 h, dose level Low, time 5 day
[3] = 36 mg/kg, 72 h, dose level High, time 3 day
[4] = 36 mg/kg, 120 h, dose level High, time 5 day

Nc1c2ccccc2nc2ccccc12 [AMINACRINE]
BASOPHIL [1]: 0%
EOSINOPHIL [1]: 0.67%
ERYTHROCYTE COUNT [1]: 6.9 x10E6/uL
HEMATOCRIT [1]: 42.07%
HEMOGLOBIN [1]: 14.07 G/DL
LEUKOCYTE COUNT [1]: 11.4 x10E3/uL
LYMPHOCYTE [1]: 65.33%
MEAN CORPUSCULAR HEMOGLOBIN [1]: 20.43 pg
MEAN CORPUSCULAR HEMOGLOBIN CONCENTRATION [1]: 33.4 G/DL
MEAN CORPUSCULAR VOLUME [1]: 61.1 fL
MONOCYTE [1]: 8.67%
NEUTROPHIL [1]: 25.67%
PLATELET COUNT [1]: 1093.67 x10E3/uL
ALANINE AMINOTRANSFERASE [1]: 44 u/L
ALBUMIN [1]: 3.9 G/DL
ALKALINE PHOSPHATASE [1]: 311.67 u/L
ASPARTATE AMINOTRANSFERASE [1]: 81 u/L
BLOOD UREA NITROGEN [1]: 14.67 mg/dL
CARBON DIOXIDE [1]: 22.33 mmol/L
CHLORIDE [1]: 106 MEQ/L
CHOLESTEROL [1]: 68.33 mg/dL
CREATININE [1]: 0.3 mg/dL
GLUCOSE [1]: 144.67 mg/dL
LACTATE DEHYDROGENASE [1]: 297.67 u/L
LIPASE [1]: 8.67 u/L
PHOSPHORUS [1]: 9.93 mg/dL
POTASSIUM [1]: 5.93 MEQ/L
TOTAL BILIRUBIN [1]: 0.1 mg/dL
TOTAL PROTEIN [1]: 6 G/DL
URIC ACID [1]: 0.93 mg/dL
BASOPHIL [2]: 0.33%
EOSINOPHIL [2]: 0%
ERYTHROCYTE COUNT [2]: 6.82 x10E6/uL
HEMATOCRIT [2]: 42.2%
HEMOGLOBIN [2]: 13.8 G/DL
LEUKOCYTE COUNT [2]: 13.23 x10E3/uL
LYMPHOCYTE [2]: 62%
MEAN CORPUSCULAR HEMOGLOBIN [2]: 20.2 pg
MEAN CORPUSCULAR HEMOGLOBIN CONCENTRATION [2]: 32.67 G/DL
MEAN CORPUSCULAR VOLUME [2]: 61.87 fL
MONOCYTE [2]: 3%
NEUTROPHIL [2]: 34.33%
PLATELET COUNT [2]: 1028 x10E3/uL
ALANINE AMINOTRANSFERASE [2]: 47 u/L
ALBUMIN [2]: 3.4 G/DL
ALKALINE PHOSPHATASE [2]: 316 u/L
ASPARTATE AMINOTRANSFERASE [2]: 78.33 u/L
BLOOD UREA NITROGEN [2]: 17.33 mg/dL
CARBON DIOXIDE [2]: 22.67 mmol/L
CHLORIDE [2]: 100.33 MEQ/L
CHOLESTEROL [2]: 66.33 mg/dL
CREATININE [2]: 0.3 mg/dL
GLUCOSE [2]: 141.67 mg/dL
LACTATE DEHYDROGENASE [2]: 188.67 u/L
LIPASE [2]: 8 u/L
PHOSPHORUS [2]: 9.9 mg/dL
POTASSIUM [2]: 5.47 MEQ/L
TOTAL BILIRUBIN [2]: 0.1 mg/dL
TOTAL PROTEIN [2]: 6.13 G/DL
URIC ACID [2]: 0.9 mg/dL
BASOPHIL [3]: 0.33%
EOSINOPHIL [3]: 0.33%
ERYTHROCYTE COUNT [3]: 6.95 x10E6/uL
HEMATOCRIT [3]: 42.07%
HEMOGLOBIN [3]: 14.1 G/DL
LEUKOCYTE COUNT [3]: 8.8 x10E3/uL
LYMPHOCYTE [3]: 76%
MEAN CORPUSCULAR HEMOGLOBIN [3]: 20.3 pg
MEAN CORPUSCULAR HEMOGLOBIN CONCENTRATION [3]: 33.47 G/DL
MEAN CORPUSCULAR VOLUME [3]: 60.57 fL
MONOCYTE [3]: 3%
NEUTROPHIL [3]: 20.33%
PLATELET COUNT [3]: 1177.67 x10E3/uL
ALANINE AMINOTRANSFERASE [3]: 44.33 u/L
ALBUMIN [3]: 3.27 G/DL
ALKALINE PHOSPHATASE [3]: 226.33 u/L
ASPARTATE AMINOTRANSFERASE [3]: 101.67 u/L
BLOOD UREA NITROGEN [3]: 17 mg/dL
CARBON DIOXIDE [3]: 22 mmol/L
CHLORIDE [3]: 106 MEQ/L
CHOLESTEROL [3]: 62 mg/dL
CREATININE [3]: 0.3 mg/dL
GLUCOSE [3]: 151 mg/dL
LACTATE DEHYDROGENASE [3]: 142.33 u/L
LIPASE [3]: 7.67 u/L
PHOSPHORUS [3]: 9.3 mg/dL
POTASSIUM [3]: 6 MEQ/L
TOTAL BILIRUBIN [3]: 0.1 mg/dL
TOTAL PROTEIN [3]: 6.07 G/DL
URIC ACID [3]: 1.17 mg/dL
BASOPHIL [4]: 0%
EOSINOPHIL [4]: 0%
ERYTHROCYTE COUNT [4]: 6.75 x10E6/uL
HEMATOCRIT [4]: 41.37%
HEMOGLOBIN [4]: 13.1 G/DL
LEUKOCYTE COUNT [4]: 11.17 x10E3/uL
LYMPHOCYTE [4]: 59.67%
MEAN CORPUSCULAR HEMOGLOBIN [4]: 19.43 pg
MEAN CORPUSCULAR HEMOGLOBIN CONCENTRATION [4]: 31.73 G/DL
MEAN CORPUSCULAR VOLUME [4]: 61.3 fL
MONOCYTE [4]: 4.33%
NEUTROPHIL [4]: 35.67%
PLATELET COUNT [4]: 1310.67 x10E3/uL
ALANINE AMINOTRANSFERASE [4]: 40.67 u/L
ALBUMIN [4]: 2.83 G/DL
ALKALINE PHOSPHATASE [4]: 304.33 u/L
ASPARTATE AMINOTRANSFERASE [4]: 111 u/L
BLOOD UREA NITROGEN [4]: 17.33 mg/dL
CARBON DIOXIDE [4]: 22 mmol/L
CHLORIDE [4]: 101.67 MEQ/L
CHOLESTEROL [4]: 48 mg/dL
CREATININE [4]: 0.3 mg/dL
GLUCOSE [4]: 157.67 mg/dL
LACTATE DEHYDROGENASE [4]: 113.33 u/L
LIPASE [4]: 7 u/L
PHOSPHORUS [4]: 9 mg/dL
POTASSIUM [4]: 5.17 MEQ/L
TOTAL BILIRUBIN [4]: 0.1 mg/dL
TOTAL PROTEIN [4]: 5.5 G/DL
URIC ACID [4]: 0.97 mg/dL
